# Experimental data: PubChem BioAssay AID1963853 (Molecular Pharmacology Branch, DTP, NCI, 2024)
# Tested on: 266295-075-R-J1-PDC spheroid viability
# Assay: Anticancer human tumor 266295-075-R-J1-PDC patient-derived head and neck squamous carcinoma cell line growth inhibition [POLQ]
# Conditions: spheroids with HUVEC and MSC; for IC50: curve of first compound; for viability, T/C: stronger effect = lower value
# Outline: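 Three-cell-type spheroids modelling solid tumor plus stroma served as the readout system; POL inhibitors were tested individually and in combination, concentration ranges set by clinical Cmax where known.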
# [1] = second compound 0.0316 µM, first compound 0.0316 µM
# [2] = second compound 0.0316 µM, first compound 0.1 µM
# [3] = second compound 0.0316 µM, first compound 0.316 µM
# [4] = second compound 0.0316 µM, first compound 1 µM
# [5] = second compound 0.0316 µM, first compound 3.16 µM
# [6] = second compound 0.0316 µM, first compound 10 µM
# [7] = second compound 0.1 µM, first compound 0.0316 µM
# [8] = second compound 0.1 µM, first compound 0.1 µM
# [9] = second compound 0.1 µM, first compound 0.316 µM
# [10] = second compound 0.1 µM, first compound 1 µM
# [11] = second compound 0.1 µM, first compound 3.16 µM
# [12] = second compound 0.1 µM, first compound 10 µM
# [13] = second compound 0.316 µM, first compound 0.0316 µM
# [14] = second compound 0.316 µM, first compound 0.1 µM
# [15] = second compound 0.316 µM, first compound 0.316 µM
# [16] = second compound 0.316 µM, first compound 1 µM
# [17] = second compound 0.316 µM, first compound 3.16 µM
# [18] = second compound 0.316 µM, first compound 10 µM
# [19] = second compound 1 µM, first compound 0.0316 µM
# [20] = second compound 1 µM, first compound 0.1 µM
# [21] = second compound 1 µM, first compound 0.316 µM
# [22] = second compound 1 µM, first compound 1 µM
# [23] = second compound 1 µM, first compound 3.16 µM
# [24] = second compound 1 µM, first compound 10 µM
# [25] = second compound 3.16 µM, first compound 0.0316 µM
# [26] = second compound 3.16 µM, first compound 0.1 µM
# [27] = second compound 3.16 µM, first compound 0.316 µM
# [28] = second compound 3.16 µM, first compound 1 µM
# [29] = second compound 3.16 µM, first compound 3.16 µM
# [30] = second compound 3.16 µM, first compound 10 µM
# [31] = second compound 10 µM, first compound 0.0316 µM
# [32] = second compound 10 µM, first compound 0.1 µM
# [33] = second compound 10 µM, first compound 0.316 µM
# [34] = second compound 10 µM, first compound 1 µM
# [35] = second compound 10 µM, first compound 3.16 µM
# [36] = second compound 10 µM, first compound 10 µM
# 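Also: spheroids exposed to compounds for seven days before readout.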
structure (smiles),measurement,setting,value
C#Cc1c(F)ccc2cc(O)cc(-c3ncc4c(N5CC6CCC(C5)N6)nc(OCC56CCCN5CC(F)C6)nc4c3F)c12 (stereo unspecified) + Cc1cccc(N(C)C(=O)C2C(O)CCN2c2nc(C)cc(C(F)(F)F)c2C#N)c1,IC50,second compound 0.0316 µM,> 10 µM
same,IC50,second compound 0.1 µM,> 10 µM
same,IC50,second compound 0.316 µM,> 10 µM
same,IC50,second compound 1 µM,> 10 µM
same,IC50,second compound 3.16 µM,6.48 µM
same,IC50,second compound 10 µM,> 10 µM
same,"viability, T/C",[1],91.9%
same,"viability, T/C",[2],76.7%
same,"viability, T/C",[3],82.8%
same,"viability, T/C",[4],66.8%
same,"viability, T/C",[5],66.7%
same,"viability, T/C",[6],57%
same,"viability, T/C",[7],111%
same,"viability, T/C",[8],94.1%
same,"viability, T/C",[9],70%
same,"viability, T/C",[10],62.8%
same,"viability, T/C",[11],59.6%
same,"viability, T/C",[12],55.7%
same,"viability, T/C",[13],102%
same,"viability, T/C",[14],87.4%
same,"viability, T/C",[15],78.6%
same,"viability, T/C",[16],70.6%
same,"viability, T/C",[17],70.9%
same,"viability, T/C",[18],58.8%
same,"viability, T/C",[19],90.3%
same,"viability, T/C",[20],93.1%
same,"viability, T/C",[21],75.5%
same,"viability, T/C",[22],67.3%
same,"viability, T/C",[23],67.8%
same,"viability, T/C",[24],57.8%
same,"viability, T/C",[25],154%
same,"viability, T/C",[26],83.7%
same,"viability, T/C",[27],76.9%
same,"viability, T/C",[28],65.1%
same,"viability, T/C",[29],66.6%
same,"viability, T/C",[30],55.6%
same,"viability, T/C",[31],84.5%
same,"viability, T/C",[32],91.9%
same,"viability, T/C",[33],82.9%
same,"viability, T/C",[34],63.2%
same,"viability, T/C",[35],65.7%
same,"viability, T/C",[36],85%
CC1COCCN1c1cc(C2(O)CC3CCC(C2)O3)c2cnn(-c3ccn[nH]3)c2n1 (stereo unspecified) + Cc1cccc(N(C)C(=O)C2C(O)CCN2c2nc(C)cc(C(F)(F)F)c2C#N)c1,IC50,second compound 0.0316 µM,0.839 µM
same,IC50,second compound 0.1 µM,0.872 µM
same,IC50,second compound 0.316 µM,0.92 µM
same,IC50,second compound 1 µM,0.568 µM
same,IC50,second compound 3.16 µM,0.86 µM
same,IC50,second compound 10 µM,0.97 µM
same,"viability, T/C",[1],84%
same,"viability, T/C",[2],74.1%
same,"viability, T/C",[3],61.3%
same,"viability, T/C",[4],47%
same,"viability, T/C",[5],36.8%
same,"viability, T/C",[6],25%
same,"viability, T/C",[7],86%
same,"viability, T/C",[8],69.1%
same,"viability, T/C",[9],76.2%
same,"viability, T/C",[10],46%
same,"viability, T/C",[11],37.5%
same,"viability, T/C",[12],29.7%
same,"viability, T/C",[13],82.1%
same,"viability, T/C",[14],74.1%
same,"viability, T/C",[15],60.6%
same,"viability, T/C",[16],49%
same,"viability, T/C",[17],37.6%
same,"viability, T/C",[18],26.3%
same,"viability, T/C",[19],94.1%
same,"viability, T/C",[20],63.6%
same,"viability, T/C",[21],58.4%
same,"viability, T/C",[22],45.9%
same,"viability, T/C",[23],40%
same,"viability, T/C",[24],26.1%
same,"viability, T/C",[25],89.5%
same,"viability, T/C",[26],74%
same,"viability, T/C",[27],60.3%
same,"viability, T/C",[28],51.5%
same,"viability, T/C",[29],34.5%
same,"viability, T/C",[30],31.1%
same,"viability, T/C",[31],114%
same,"viability, T/C",[32],88.8%
same,"viability, T/C",[33],69.1%
same,"viability, T/C",[34],49.4%
same,"viability, T/C",[35],35.2%
same,"viability, T/C",[36],28.1%
CCc1cc2c(N3CCc4c(cc(Cn5ccnc5)cc4-c4cn(C)nc4C(F)(F)F)C3=O)ccnc2c(OC)n1 + Cc1cccc(N(C)C(=O)C2C(O)CCN2c2nc(C)cc(C(F)(F)F)c2C#N)c1,IC50,second compound 0.0316 µM,> 10 µM
same,IC50,second compound 0.1 µM,> 10 µM
same,IC50,second compound 0.316 µM,> 10 µM
same,IC50,second compound 1 µM,> 10 µM
same,IC50,second compound 3.16 µM,> 10 µM
same,IC50,second compound 10 µM,> 10 µM
same,"viability, T/C",[1],90.4%
same,"viability, T/C",[2],101%
same,"viability, T/C",[3],78.6%
same,"viability, T/C",[4],115%
same,"viability, T/C",[5],138%
same,"viability, T/C",[6],126%
same,"viability, T/C",[7],98.6%
same,"viability, T/C",[8],90%
same,"viability, T/C",[9],105%
same,"viability, T/C",[10],99.6%
same,"viability, T/C",[11],119%
same,"viability, T/C",[12],124%
same,"viability, T/C",[13],119%
same,"viability, T/C",[14],102%
same,"viability, T/C",[15],80.3%
same,"viability, T/C",[16],92.8%
same,"viability, T/C",[17],130%
same,"viability, T/C",[18],104%
same,"viability, T/C",[19],86.7%
same,"viability, T/C",[20],105%
same,"viability, T/C",[21],90.6%
same,"viability, T/C",[22],110%
same,"viability, T/C",[23],141%
same,"viability, T/C",[24],104%
same,"viability, T/C",[25],107%
same,"viability, T/C",[26],82.1%
same,"viability, T/C",[27],104%
same,"viability, T/C",[28],103%
same,"viability, T/C",[29],122%
same,"viability, T/C",[30],118%
same,"viability, T/C",[31],97.8%
same,"viability, T/C",[32],90.6%
same,"viability, T/C",[33],110%
same,"viability, T/C",[34],132%
same,"viability, T/C",[35],127%
same,"viability, T/C",[36],144%
